We go through 3 compounds from US11858909B2, “Deuterated etoricoxib, methods of manufacture, and use thereof” (Tremeau Pharmaceuticals, Inc., priority 2021, dated 2024).

Series [1] can be described thus: Single dose crossover pharmacokinetic study in dogs. The format is in vivo. Conditions: for AUC / Cmax: male, dog, plasma, po, single oral (gavage) dose, d3-etoricoxib 2.00 mg/kg, etoricoxib 1.98 mg/kg. As for the experimental part: A single dose crossover study was conducted to compare the pharmacokinetics of d3-etoricoxib and non-isotopically enriched etoricoxib in dogs. Four male dogs were dosed, and animals received each of the following treatments sequentially, with a minimum of four days washout between doses.
Blood samples were taken at 0.083, 0.25, 0.5, 1, 2, 4, 6, 8, 12, and 24 hours post-dose. Plasma was analyzed for d3-etoricoxib or non-isotopically enriched etoricoxib concentration.

For a further series, the system named is human liver microsomes. Description: Metabolic stability with human liver microsomes (formation of M1 / d2-M1 metabolite). The format is in vitro ADME. Conditions: human liver microsomes 0.5 mg/mL, 1 μM, over 60 minutes, NADPH and UDPGA. On the procedure:
The metabolic stability of non-isotopically enriched etoricoxib and d3-etoricoxib, with human liver microsomes was evaluated.
Etoricoxib is extensively metabolized in humans with <1% of a dose recovered in urine as the parent drug. The primary pathway for metabolism of etoricoxib in humans is through the production of the methylhydroxy metabolite of etoricoxib (“M1”). Metabolism of etoricoxib involves conversion primarily to the “M1” derivative, mainly (ca. 60%) by CYP3A4, with less contribution by CYPs 1A2, 2C9, 2C19 and 2D6 (ca. 40% collectively). See, e.g., Arcoxia® (etoricoxib) Australian Product Information, available at http://apps.medicines.org.au/files/mkparcox.pdf (last visited Apr. 9, 2021), the contents of which are herein incorporated by reference in their entirety. Production of the “M1” metabolite and d3-etoricoxib (“d2-M1”) was evaluated in this experiment throughout the incubation period.
(In general: Liver microsomes are a subcellular fraction often used to study metabolism.)

The target in series [2] is T1, CYP3A4 (Homo sapiens, UniProt P08684). The experiment in a line: Metabolic stability in CYP3A4 incubations (formation of methylhydroxy metabolites). The format is in vitro ADME. The arrangement: purchased Corning 456202. Conditions: for Formation of methylhydroxy metabolite relative to M1 formed from etoricoxib: human recombinant CYP3A4, over time (to 40 min), 1 μM; for Susceptibility to metabolism by CYP3A4 compared with non-isotopically enriched etoricoxib: human recombinant CYP3A4 incubations. As for the experimental part: The metabolic stability of non-isotopically enriched etoricoxib, d3-etoricoxib, and an alternate deuterated form of etoricoxib, d4-etoricoxib (5-chloro-6′-methyl-3-(4-(methylsulfonyl)phenyl-2,3,5,6-d4)-2,3′-bipyridine, CAS No.: 1131345-14-6), in CYP3A4 incubations was evaluated. d4-Etoricoxib has the chemical structure:
Human recombinant CYP3A4 (Corning, item #456202, lot #9322001) was chosen for the assay conditions as CYP3A4 is the principle enzyme responsible for the metabolism of etoricoxib in humans. Formation of the methylhydroxy metabolites formed from etoricoxib, d3-etoricoxib, and d4-etoricoxib was monitored over time (Table 5, FIGS. 13 and 14).

For series [3] the following is noted: humans; cited from earlier work.
The target of series [4] is T1, CYP3A4. As to conditions: humans; cited from earlier work.
For series [5], the system named is CYPs 1A2, 2C9, 2C19 and 2D6. As to conditions: humans; cited from earlier work.
Where [6] appears, read: equivalent oral doses, four male dogs.
Setting [7] is: four male dogs, oral (gavage), 2.00 vs 1.98 mg/kg.
[8] abbreviates: Animal 1001, male dog, read-out: AUC0.5-24 h.
Where [9] appears, read: Animal 1001, male dog, read-out: Cmax.
[10] abbreviates: Animal 1002, male dog, read-out: AUC0.5-24 h.
The mark [11] stands for this setting: Animal 1002, male dog, read-out: Cmax.
Where [12] appears, read: Animal 1003, male dog, read-out: AUC0.5-24 h.
The mark [13] stands for this setting: Animal 1003, male dog, read-out: Cmax.
The mark [14] stands for this setting: Animal 1004, male dog, read-out: AUC0.5-24 h.
Setting [15] is: Animal 1004, male dog, read-out: Cmax.
Setting [16] is: Mean (SD) of four male dogs, read-out: AUC0.5-24 h, Mean (SD).
The mark [17] stands for this setting: Mean (SD) of four male dogs, read-out: Cmax, Mean (SD).

Read-outs that look alike come from different tables or passages of the source. A value given as a limit tells only on which side of the number the result lay.

T1 sequence (P08684 whole entry): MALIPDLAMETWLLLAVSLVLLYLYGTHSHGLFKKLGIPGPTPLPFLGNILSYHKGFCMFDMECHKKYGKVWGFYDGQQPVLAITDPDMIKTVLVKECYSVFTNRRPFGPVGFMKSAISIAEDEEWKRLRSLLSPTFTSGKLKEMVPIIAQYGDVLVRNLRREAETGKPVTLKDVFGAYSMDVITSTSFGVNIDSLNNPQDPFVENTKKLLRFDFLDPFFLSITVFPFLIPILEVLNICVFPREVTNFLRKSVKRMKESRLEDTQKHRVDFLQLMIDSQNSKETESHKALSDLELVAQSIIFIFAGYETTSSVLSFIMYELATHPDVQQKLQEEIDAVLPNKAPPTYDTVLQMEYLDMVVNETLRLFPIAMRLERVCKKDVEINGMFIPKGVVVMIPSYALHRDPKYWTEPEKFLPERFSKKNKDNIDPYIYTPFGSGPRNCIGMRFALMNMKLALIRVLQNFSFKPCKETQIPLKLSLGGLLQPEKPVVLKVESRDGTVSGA

As usually defined, the Cmax is the peak of the concentration-time curve. `[2H]C([2H])([2H])c1ccc(-c2ncc(Cl)cc2-c2ccc(S(C)(=O)=O)cc2)cn1` [d3-etoricoxib, 5-chloro-6′-(methyl-d3)-3-(4-(methylsulfonyl)phenyl)-2,3′-bipyridine]: the “Cmax relative to non-isotopically enriched etoricoxib” value in series [1] (setting [6]) is reported as “higher Cmax”. Besides, in series [1] (setting [6]), the “Metabolism in dogs relative to non-isotopically enriched etoricoxib” value is on record as “substantially resistant to metabolism”. Besides, in series [1] (setting [6]), the “Total exposure (AUC) relative to non-isotopically enriched etoricoxib” value is “higher total exposure”. Moreover, in series [1] (setting [7]), the “AUC0.5-24 h, Average % delta d3-etoricoxib vs etoricoxib” value is “+48.6%”. Moreover, in series [1] (setting [7]), the “Cmax, Average % delta d3-etoricoxib vs etoricoxib” value was “+54.9%”. The AUC in series [1] (setting [8]) stood at 516 ng·h/mL; in series [1] (setting [10]), 1020 ng·h/mL; in series [1] (setting [12]), 1260 ng·h/mL; in series [1] (setting [14]), 658 ng·h/mL; in series [1] (setting [16]), 865 ng·h/mL. Further, the highest concentration (Cmax) in series [1] (setting [9]) is 628 ng/mL; in series [1] (setting [11]), 791 ng/mL; in series [1] (setting [13]), 593 ng/mL; in series [1] (setting [15]), 317 ng/mL; in series [1] (setting [17]), 604 ng/mL. The “Amount of d2-M1 metabolite formed relative to M1 formed from etoricoxib” value with human liver microsomes is recorded as “approximately three-fold less”. The “Formation of methylhydroxy metabolite relative to M1 formed from etoricoxib” value at CYP3A4 [2] is recorded as “about six-fold lower”. Further, at CYP3A4 [2], the “Susceptibility to metabolism by CYP3A4 compared with non-isotopically enriched etoricoxib” value is on record as “substantially different”.

Regarding `[2H]c1c([2H])c(S(C)(=O)=O)c([2H])c([2H])c1-c1cc(Cl)cnc1-c1ccc(C)nc1` [d4-etoricoxib, 5-chloro-6′-methyl-3-(4-(methylsulfonyl)phenyl-2,3,5,6-d4)-2,3′-bipyridine, reference compound], on CYP3A4 [2], the “Formation of methylhydroxy metabolite relative to M1 formed from etoricoxib” value was “similar” and the “Susceptibility to metabolism by CYP3A4 compared with non-isotopically enriched etoricoxib” value is reported as “almost identical”.

Regarding `Cc1ccc(-c2ncc(Cl)cc2-c2ccc(S(C)(=O)=O)cc2)cn1` [etoricoxib], the AUC in series [1] (setting [8]) turned out to be 342 ng·h/mL; in series [1] (setting [10]), 606 ng·h/mL; in series [1] (setting [12]), 1130 ng·h/mL; in series [1] (setting [14]), 336 ng·h/mL; in series [1] (setting [16]) it was 582 ng·h/mL. For the same compound, the maximum concentration (Cmax) in series [1] (setting [9]) amounted to 259 ng/mL; in series [1] (setting [11]), 426 ng/mL; in series [1] (setting [13]), 670 ng/mL; in series [1] (setting [15]), 206 ng/mL; in series [1] (setting [17]), 390 ng/mL. For the same compound, in series [3], the “Dose recovered in urine as the parent drug” value is given as less than 1%. Moreover, at CYP3A4 [4], the “Share of conversion to the M1 derivative by CYP3A4” value is listed as “ca. 60%”. Also, the “Share of conversion to the M1 derivative by CYPs 1A2, 2C9, 2C19 and 2D6 collectively” value in series [5] is “ca. 40%”.
